Measurements from patent publication US6914045B2, “Glycopeptide antibiotics” (Wyeth Holdings Corporation, priority 2001, dated 2005).
≈ marks a conversion by molar mass, not a printed value.

Legend:
Test in all cases: in vitro antibacterial evaluation, MIC by broth dilution
Type in all cases: cell-based
Enterococcus sp. = details: broth dilution, 18 hours at 35° C.
Description: (§1) Methods for in vitro Antibacterial Evaluation (Table 1)
(§2) The minimum inhibitory concentration (MIC), the lowest concentration of the antibiotic which inhibits growth of the test organism, is determined by the broth dilution method using Muller-Hinton II […] (Baltimore Biological Laboratories) following the recommendations of the National Committee for Clinical Laboratory Standards [Methods for dilution antimicrobial susceptibility tests for bacteria that grow aerobically, approved standard M7-A2, National Committee for Clinical Laboratory Standards, Villanova, Pa.].
(§3) An inoculum level of 5×10^5 CFU/mL, and a range of antibiotic concentrations (64-0.06 μg/mL) is used. […] The test organisms include a spectrum of Gram-positive bacteria comprised of Staphylococcus sp., Streptococcus sp. and Enterococcus sp. These organisms include recent clinical isolates that are resistant to methicillin, penicillin and/or vancomycin.

Staphylococcus sp. = test system: Staphylococcus sp.
Description: as §1, §2, §3

Streptococcus sp. = details: broth dilution, 18 hours at 35° C.
Description: as §1, §2, §3

Escherichia coli = details: 18 hours at 35° C.
Description: as §2, §3

[1] = strain ATCC 29213; broth dilution, 18 hours at 35° C.
[2] = strain GC 1131; broth dilution, 18 hours at 35° C.
[3] = Enterococcus faecalis (ATCC 29212)
[4] = Enterococcus faecalis (GC 2242)
[5] = Enterococcus faecalis (GC 4552)
[6] = broth dilution, 18 hours at 35° C.
[7] = broth dilution, 18 hours at 35° C.; strain GC 4537
[8] = broth dilution, 18 hours at 35° C.; strain GC 4538
[9] = broth dilution, 18 hours at 35° C.; strain GC 4547
[10] = strain GC 4535; broth dilution, 18 hours at 35° C.
[11] = strain GC 4536; broth dilution, 18 hours at 35° C.

## CC(c1ccccc1)C1NC(=O)CNC(=O)C(CO)NC(=O)C(C(O)C2CNC(=N)N2C2OC(CO)C(O)C(O)C2O)NC(=O)C(C(O)C2CNC(=N)N2)NC(=O)C(Cc2ccc(O)c(NC=O)c2)NC1=O (stereo not drawn) [Example 18, Cyclo[glycyl-β-methylphenylalanyl-3-formamidotyrosyl-3-(2-iminoimidazolidin-4-yl)seryl-3-(3-hexopyranosyl-2-iminoimidazolidin-4-yl)serylseryl]]
Enterococcus sp.; strain ATCC 29212
  MIC Enterococcus faecalis (ATCC 29212): >128 µg/mL
Enterococcus sp.; strain GC 2242
  MIC Enterococcus faecalis (GC 2242): >128 µg/mL
Enterococcus sp.; strain GC 2243
  MIC Enterococcus faecium (GC 2243): >128 µg/mL
Enterococcus sp.; strain GC 2691
  MIC Enterococcus faecalis (GC 2691): >128 µg/mL
Enterococcus sp.; strain GC 3059
  MIC Enterococcus faecalis (GC 3059): >128 µg/mL
Enterococcus sp.; strain GC 4552
  MIC Enterococcus faecalis (GC 4552): >128 µg/mL
Enterococcus sp.; strain GC 4553
  MIC Enterococcus faecalis (GC 4553): 128 µg/mL (≈ 126 µM)
Enterococcus sp.; strain GC 4554
  MIC Enterococcus faecalis (GC 4554): >128 µg/mL
Enterococcus sp.; strain GC 4556
  MIC Enterococcus faecium (GC 4556): >128 µg/mL
Enterococcus sp.; strain GC 4557
  MIC Enterococcus faecium (GC 4557): 64 µg/mL (≈ 63.1 µM)
Enterococcus sp.; strain GC 4558
  MIC Enterococcus avium (GC 4558): 128 µg/mL (≈ 126 µM)
Enterococcus sp.; strain GC 6189
  MIC Enterococcus faecalis (GC 6189): >128 µg/mL
Staphylococcus sp.; [1]
  MIC Staphylococcus aureus (ATCC 29213): >128 µg/mL
Staphylococcus sp.; [2]
  MIC Staphylococcus aureus (GC 1131): >128 µg/mL
Staphylococcus sp.; strain GC 3051; broth dilution, 18 hours at 35° C.
  MIC Staphylococcus aureus (GC 3051): >128 µg/mL
Staphylococcus sp.; strain GC 3053; broth dilution, 18 hours at 35° C.
  MIC Staphylococcus aureus (GC 3053): >128 µg/mL
Staphylococcus sp.; strain GC 4541; broth dilution, 18 hours at 35° C.
  MIC Staphylococcus aureus (GC 4541): >128 µg/mL
Staphylococcus sp.; strain GC 4542; broth dilution, 18 hours at 35° C.
  MIC Staphylococcus aureus (GC 4542): >128 µg/mL
Staphylococcus sp.; strain GC 4543; broth dilution, 18 hours at 35° C.
  MIC Staphylococcus aureus-SMITH (GC 4543): >128 µg/mL
Staphylococcus sp.; strain GC 4544; broth dilution, 18 hours at 35° C.
  MIC Staphylococcus aureus (GC 4544): >128 µg/mL
Staphylococcus sp.; strain GC 4545; broth dilution, 18 hours at 35° C.
  MIC Staphylococcus aureus (GC 4545): >128 µg/mL
Staphylococcus sp.; strain GC 4546; broth dilution, 18 hours at 35° C.
  MIC Staphylococcus haemolyticus (GC 4546): 128 µg/mL (≈ 126 µM)
Staphylococcus sp.; strain GC 4547; broth dilution, 18 hours at 35° C.
  MIC Coagulase Negative Staphylococcus (GC 4547): 128 µg/mL (≈ 126 µM)
Staphylococcus sp.; strain GC 4548; broth dilution, 18 hours at 35° C.
  MIC Coagulase Negative Staphylococcus (GC 4548): 128 µg/mL (≈ 126 µM)
Staphylococcus sp.; strain GC 4549; broth dilution, 18 hours at 35° C.
  MIC Coagulase Negative Staphylococcus (GC 4549): 64 µg/mL (≈ 63.1 µM)
Staphylococcus sp.; strain GC 4551; broth dilution, 18 hours at 35° C.
  MIC Coagulase Negative Staphylococcus (GC 4551): >128 µg/mL
Staphylococcus sp.; strain GC 6257; broth dilution, 18 hours at 35° C.
  MIC Coagulase Negative Staphylococcus (GC 6257): 128 µg/mL (≈ 126 µM)
Streptococcus sp.; strain ATCC 6301
  MIC Streptococcus pneumoniae (ATCC 6301): 128 µg/mL (≈ 126 µM)
Streptococcus sp.; strain GC 1894
  MIC Streptococcus pneumoniae (GC 1894): 64 µg/mL (≈ 63.1 µM)
Streptococcus sp.; strain GC 4563
  MIC Streptococcus pyogenes (GC 4563): 128 µg/mL (≈ 126 µM)
Streptococcus sp.; strain GC 4564
  MIC Streptococcus agalactiae (GC 4564): 128 µg/mL (≈ 126 µM)
Streptococcus sp.; strain GC 4565
  MIC Streptococcus pneumoniae (GC 4565): 128 µg/mL (≈ 126 µM)
Escherichia coli; strain ATCC 25922, broth dilution
  MIC Escherichia coli (ATCC 25922): 64 µg/mL (≈ 63.1 µM)
Escherichia coli; strain GC 4559, broth dilution
  MIC Escherichia coli (GC 4559): 32 µg/mL (≈ 31.6 µM)
Escherichia coli; strain GC 4560, broth dilution
  MIC Escherichia coli (GC 4560): 16 µg/mL (≈ 15.8 µM)

## CCCCCCC(=O)OCC1OC(N2C(=N)NCC2C(O)C2NC(=O)C(C(O)C3CNC(=N)N3)NC(=O)C(Cc3ccc(OC4OC(CO)C(OC5OC(CO)C(O)C(O)C5O)C(O)C4O)cc3)NC(=O)C(C(C)c3ccccc3)NC(=O)CNC(=O)C(CO)NC2=O)C(O)C(O)C1O (stereo not drawn) [Example 97, Cyclo[glycyl-β-methylphenylalanyl-O-(4-O-hexopyranosylhexolpyranosyl)tyrosyl-3-(2-iminoimidazolidin-4-yl)seryl-3-[3-(6-O-heptanoylhexopyranosyl)-2-iminoimidazolidin-4-yl]seryl-seryl]]
Enterococcus sp.; [3]
  MIC Enterococcus faecalis (ATCC 29212): >64 µg/mL
Enterococcus sp.; [4]
  MIC Enterococcus faecalis (GC 2242): >64 µg/mL
Enterococcus sp.; [5]
  MIC Enterococcus faecalis (GC 4552): >64 µg/mL
Enterococcus sp.
  MIC Enterococcus faecalis (ATCC 29212): >64 µg/mL
  MIC Enterococcus faecalis (GC 2242): >64 µg/mL
  MIC Enterococcus faecalis (GC 4552): >64 µg/mL
Staphylococcus sp.; [6]
  MIC Coagulase Negative Staphylococcus (GC 4537): >64 µg/mL
  MIC Coagulase Negative Staphylococcus (GC 4538): >64 µg/mL
  MIC Coagulase Negative Staphylococcus (GC 4547): >64 µg/mL
Staphylococcus sp.; [7]
  MIC Coagulase Negative Staphylococcus (GC 4537): >64 µg/mL
Staphylococcus sp.; [8]
  MIC Coagulase Negative Staphylococcus (GC 4538): >64 µg/mL
Staphylococcus sp.; [9]
  MIC Coagulase Negative Staphylococcus (GC 4547): >64 µg/mL
Staphylococcus sp.; [1]
  MIC Staphylococcus aureus (ATCC 29213): >64 µg/mL
Staphylococcus sp.; [2]
  MIC Staphylococcus aureus (GC 1131): >64 µg/mL
Staphylococcus sp.; [10]
  MIC Staphylococcus aureus (GC 4535): >64 µg/mL
Staphylococcus sp.; [11]
  MIC Staphylococcus aureus-SMITH (GC 4536): >64 µg/mL
Escherichia coli
  MIC Escherichia coli (GC 4559): >64 µg/mL
  MIC Escherichia coli (GC 4560): 2 µg/mL (≈ 1.42 µM)

## CCCCCCC(=O)OCC1OC(Oc2ccc(CC3NC(=O)C(C(C)c4ccccc4)NC(=O)CNC(=O)C(CO)NC(=O)C(C(O)C4CNC(=N)N4C4OC(CO)C(O)C(O)C4O)NC(=O)C(C(O)C4CNC(=N)N4)NC3=O)cc2)C(O)C(O)C1OC1OC(CO)C(O)C(O)C1O (stereo not drawn) [Example 97a, Cyclo[glycyl-β-methylphenylalanyl-O-(6-O-heptanoyl-4-O-hexopyranosylhexopyranosyl)-tyrosyl-3-(2-iniinoimidazolidin-4-yl)seryl-3-(3-hexopyranosyl-2-iminoimidazolidin-4-yl)-serylseryl]]
Enterococcus sp.; [3]
  MIC Enterococcus faecalis (ATCC 29212): 8 µg/mL (≈ 5.68 µM)
Enterococcus sp.; [4]
  MIC Enterococcus faecalis (GC 2242): 4 µg/mL (≈ 2.84 µM)
Enterococcus sp.; [5]
  MIC Enterococcus faecalis (GC 4552): 16 µg/mL (≈ 11.4 µM)
Enterococcus sp.
  MIC Enterococcus faecalis (ATCC 29212): 8 µg/mL (≈ 5.68 µM)
  MIC Enterococcus faecalis (GC 2242): 4 µg/mL (≈ 2.84 µM)
  MIC Enterococcus faecalis (GC 4552): 16 µg/mL (≈ 11.4 µM)
Staphylococcus sp.; [6]
  MIC Coagulase Negative Staphylococcus (GC 4537): 4 µg/mL (≈ 2.84 µM)
  MIC Coagulase Negative Staphylococcus (GC 4538): 2 µg/mL (≈ 1.42 µM)
  MIC Coagulase Negative Staphylococcus (GC 4547): 2 µg/mL (≈ 1.42 µM)
Staphylococcus sp.; [7]
  MIC Coagulase Negative Staphylococcus (GC 4537): 4 µg/mL (≈ 2.84 µM)
Staphylococcus sp.; [8]
  MIC Coagulase Negative Staphylococcus (GC 4538): 2 µg/mL (≈ 1.42 µM)
Staphylococcus sp.; [9]
  MIC Coagulase Negative Staphylococcus (GC 4547): 2 µg/mL (≈ 1.42 µM)
Staphylococcus sp.; [1]
  MIC Staphylococcus aureus (ATCC 29213): 1 µg/mL (≈ 0.711 µM)
Staphylococcus sp.; [2]
  MIC Staphylococcus aureus (GC 1131): 2 µg/mL (≈ 1.42 µM)
Staphylococcus sp.; [10]
  MIC Staphylococcus aureus (GC 4535): 2 µg/mL (≈ 1.42 µM)
Staphylococcus sp.; [11]
  MIC Staphylococcus aureus-SMITH (GC 4536): 0.5 µg/mL (≈ 0.355 µM)
Escherichia coli
  MIC Escherichia coli (GC 4559): >64 µg/mL
  MIC Escherichia coli (GC 4560): 1 µg/mL (≈ 0.711 µM)

## CC(c1ccccc1)C1NC(=O)CNC(=O)C(CO)NC(=O)C(C(O)C2CNC(=N)N2C2OC(CO)C(O)C(O)C2O)NC(=O)C(C(O)C2CNC(=N)N2)NC(=O)C(Cc2ccc(OC3OC(COC(=O)Cc4ccccc4)C(OC4OC(CO)C(O)C(O)C4O)C(O)C3O)cc2)NC1=O (centres unmarked) [Example 98b]
Enterococcus sp.; [3]
  MIC Enterococcus faecalis (ATCC 29212): 64 µg/mL (≈ 45.3 µM)
Enterococcus sp.; [4]
  MIC Enterococcus faecalis (GC 2242): 64 µg/mL (≈ 45.3 µM)
Enterococcus sp.; [5]
  MIC Enterococcus faecalis (GC 4552): 128 µg/mL (≈ 90.6 µM)
Enterococcus sp.
  MIC Enterococcus faecalis (ATCC 29212): 64 µg/mL (≈ 45.3 µM)
  MIC Enterococcus faecalis (GC 2242): 64 µg/mL (≈ 45.3 µM)
  MIC Enterococcus faecalis (GC 4552): 128 µg/mL (≈ 90.6 µM)
Staphylococcus sp.; [6]
  MIC Coagulase Negative Staphylococcus (GC 4537): 16 µg/mL (≈ 11.3 µM)
  MIC Coagulase Negative Staphylococcus (GC 4538): 8 µg/mL (≈ 5.66 µM)
  MIC Coagulase Negative Staphylococcus (GC 4547): 8 µg/mL (≈ 5.66 µM)
Staphylococcus sp.; [7]
  MIC Coagulase Negative Staphylococcus (GC 4537): 16 µg/mL (≈ 11.3 µM)
Staphylococcus sp.; [8]
  MIC Coagulase Negative Staphylococcus (GC 4538): 8 µg/mL (≈ 5.66 µM)
Staphylococcus sp.; [9]
  MIC Coagulase Negative Staphylococcus (GC 4547): 8 µg/mL (≈ 5.66 µM)
Staphylococcus sp.; [1]
  MIC Staphylococcus aureus (ATCC 29213): 16 µg/mL (≈ 11.3 µM)
Staphylococcus sp.; [2]
  MIC Staphylococcus aureus (GC 1131): 16 µg/mL (≈ 11.3 µM)
Staphylococcus sp.; [10]
  MIC Staphylococcus aureus (GC 4535): 16 µg/mL (≈ 11.3 µM)
Staphylococcus sp.; [11]
  MIC Staphylococcus aureus-SMITH (GC 4536): 8 µg/mL (≈ 5.66 µM)
Escherichia coli
  MIC Escherichia coli (GC 4559): >128 µg/mL
  MIC Escherichia coli (GC 4560): 2 µg/mL (≈ 1.42 µM)
